PubChem BioAssay (NCI)
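Method: 48-hour compound exposure of cells in 96-well plates, five concentrations, linear interpolation of endpoints. TGI denotes the concentration required for complete inhibition of growth.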

Columns and labels:
Test in all cases: NCI-60 cell line screen, 48 h
[1] = tested on: 786-0 renal
[2] = tested on: A498 renal
[3] = tested on: A549 NSCLC
[4] = tested on: ACHN renal
[5] = tested on: BT-549 breast
[6] = tested on: CAKI-1 renal
[7] = tested on: CCRF-CEM leukemia
[8] = tested on: COLO 205 colon
[9] = tested on: DU-145 prostate
[10] = tested on: EKVX NSCLC
[11] = tested on: HCC-2998 colon
[12] = tested on: HCT-116 colon
[13] = tested on: HCT-15 colon
[14] = tested on: HL-60(TB) leukemia
[15] = tested on: HOP-62 NSCLC
[16] = tested on: HOP-92 NSCLC
[17] = tested on: HS 578T breast
[18] = tested on: HT29 colon
[19] = tested on: IGROV1 ovarian
[20] = tested on: K-562 leukemia
[21] = tested on: KM12 colon
[22] = tested on: LOX IMVI melanoma
[23] = tested on: M14 melanoma
[24] = tested on: MALME-3M melanoma
[25] = tested on: MCF7 breast
[26] = tested on: MDA-MB-231 breast
[27] = tested on: MDA-MB-435
[28] = tested on: MDA-N
[29] = tested on: MOLT-4 leukemia
[30] = tested on: NCI-H23 lung
[31] = tested on: NCI-H460 lung
[32] = tested on: NCI-H522 lung
[33] = tested on: NCI/ADR-RES ovarian
[34] = tested on: OVCAR-3 ovarian
[35] = tested on: OVCAR-4 ovarian
[36] = tested on: OVCAR-5 ovarian
[37] = tested on: OVCAR-8 ovarian
[38] = tested on: PC-3 prostate
[39] = tested on: RPMI-8226 leukemia
[40] = tested on: RXF 393 renal
[41] = tested on: SF-268 CNS
[42] = tested on: SF-295 CNS
[43] = tested on: SF-539 CNS
[44] = tested on: SK-MEL-2 melanoma
[45] = tested on: SK-MEL-28 melanoma
[46] = tested on: SK-MEL-5 melanoma
[47] = tested on: SK-OV-3 ovarian
[48] = tested on: SN12C renal
[49] = tested on: SNB-19 CNS
[50] = tested on: SNB-75 CNS
[51] = tested on: SR leukemia
[52] = tested on: SW-620 colon
[53] = tested on: T-47D breast
[54] = tested on: TK-10 renal
[55] = tested on: U251 CNS
[56] = tested on: UACC-257 melanoma
[57] = tested on: UACC-62 melanoma
[58] = tested on: UO-31 renal
[59] = tested on: NCI-H226 lung

CC(=O)Nc1nc(C)c(S(=O)(=O)NC(=O)N2c3ccccc3CCc3ccccc32)s1
TGI [1]: > 100 µM
TGI [2]: > 100 µM
TGI [3]: > 100 µM
TGI [4]: > 100 µM
TGI [5]: > 100 µM
TGI [6]: > 100 µM
TGI [7]: > 100 µM
TGI [8]: > 100 µM
TGI [9]: > 100 µM
TGI [10]: > 100 µM
TGI [11]: > 100 µM
TGI [12]: > 100 µM
TGI [13]: > 100 µM
TGI [14]: > 100 µM
TGI [15]: > 100 µM
TGI [16]: > 100 µM
TGI [17]: > 100 µM
TGI [18]: > 100 µM
TGI [19]: > 100 µM
TGI [20]: > 100 µM
TGI [21]: > 100 µM
TGI [22]: > 100 µM
TGI [23]: > 100 µM
TGI [24]: > 100 µM
TGI [25]: > 100 µM
TGI [26]: > 100 µM
TGI [27]: > 100 µM
TGI [28]: > 100 µM
TGI [29]: > 100 µM
TGI [30]: > 100 µM
TGI [31]: > 100 µM
TGI [32]: > 100 µM
TGI [33]: > 100 µM
TGI [34]: > 100 µM
TGI [35]: > 100 µM
TGI [36]: > 100 µM
TGI [37]: > 100 µM
TGI [38]: > 100 µM
TGI [39]: > 100 µM
TGI [40]: > 100 µM
TGI [41]: > 100 µM
TGI [42]: > 100 µM
TGI [43]: > 100 µM
TGI [44]: > 100 µM
TGI [45]: > 100 µM
TGI [46]: > 100 µM
TGI [47]: > 100 µM
TGI [48]: > 100 µM
TGI [49]: 71.9 µM
TGI [50]: > 100 µM
TGI [51]: > 100 µM
TGI [52]: > 100 µM
TGI [53]: > 100 µM
TGI [54]: > 100 µM
TGI [55]: > 100 µM
TGI [56]: > 100 µM
TGI [57]: > 100 µM
TGI [58]: > 100 µM

O=c1cc(C(F)(F)F)c2cc3c(cc2o1)NCCC3
TGI [1]: > 100 µM
TGI [2]: > 100 µM
TGI [3]: > 100 µM
TGI [4]: > 100 µM
TGI [5]: > 100 µM
TGI [6]: > 100 µM
TGI [7]: > 100 µM
TGI [8]: > 100 µM
TGI [9]: > 100 µM
TGI [10]: > 100 µM
TGI [11]: > 100 µM
TGI [12]: > 100 µM
TGI [13]: > 100 µM
TGI [14]: > 100 µM
TGI [15]: 42.8 µM
TGI [16]: > 100 µM
TGI [17]: 61.9 µM
TGI [18]: > 100 µM
TGI [19]: > 100 µM
TGI [20]: > 100 µM
TGI [21]: > 100 µM
TGI [22]: > 100 µM
TGI [23]: > 100 µM
TGI [24]: > 100 µM
TGI [25]: > 100 µM
TGI [26]: > 100 µM
TGI [27]: > 100 µM
TGI [28]: > 100 µM
TGI [29]: > 100 µM
TGI [59]: > 100 µM
TGI [30]: > 100 µM
TGI [31]: > 100 µM
TGI [32]: > 100 µM
TGI [33]: > 100 µM
TGI [34]: > 100 µM
TGI [35]: > 100 µM
TGI [36]: > 100 µM
TGI [37]: > 100 µM
TGI [38]: > 100 µM
TGI [39]: > 100 µM
TGI [40]: 0.987 µM
TGI [41]: > 100 µM
TGI [42]: > 100 µM
TGI [43]: > 100 µM
TGI [44]: > 100 µM
TGI [45]: > 100 µM
TGI [46]: > 100 µM
TGI [48]: > 100 µM
TGI [49]: 91.7 µM
TGI [51]: > 100 µM
TGI [52]: > 100 µM
TGI [53]: > 100 µM
TGI [54]: > 100 µM
TGI [55]: 63.4 µM
TGI [56]: > 100 µM
TGI [58]: > 100 µM

CC(C)CCCC(C)[C@H]1CC[C@H]2NCCCC[C@]12C (some centres not stated)
TGI [1]: 10.5 µM
TGI [2]: 26.6 µM
TGI [3]: 31.7 µM
TGI [4]: 4.78 µM
TGI [5]: 29.9 µM
TGI [6]: 22.8 µM
TGI [7]: 4.16 µM
TGI [8]: 3.14 µM
TGI [9]: 25.6 µM
TGI [10]: 5.23 µM
TGI [11]: 2.72 µM
TGI [12]: 20 µM
TGI [13]: 6.91 µM
TGI [14]: 5.91 µM
TGI [15]: 29.1 µM
TGI [16]: 15.5 µM
TGI [17]: 15.8 µM
TGI [18]: 5.54 µM
TGI [19]: 19.8 µM
TGI [20]: 6.61 µM
TGI [21]: 6.96 µM
TGI [22]: 4.23 µM
TGI [23]: 4.29 µM
TGI [24]: 16.4 µM
TGI [25]: 4.37 µM
TGI [26]: 9.36 µM
TGI [27]: 4.1 µM
TGI [28]: 3.99 µM
TGI [29]: 6.32 µM
TGI [59]: 29 µM
TGI [30]: 23.8 µM
TGI [31]: 4.25 µM
TGI [33]: 20.7 µM
TGI [34]: 31.7 µM
TGI [35]: 17.4 µM
TGI [36]: 6.03 µM
TGI [37]: > 25.4 µM
TGI [38]: 10.4 µM
TGI [39]: 4.01 µM
TGI [40]: 4.62 µM
TGI [41]: 32.2 µM
TGI [42]: 5.2 µM
TGI [43]: 19.5 µM
TGI [44]: 7.82 µM
TGI [45]: 5.57 µM
TGI [46]: 3.39 µM
TGI [47]: 28.4 µM
TGI [48]: 18.7 µM
TGI [49]: 17.9 µM
TGI [50]: 16 µM
TGI [51]: 6.23 µM
TGI [52]: 9.84 µM
TGI [53]: 8.93 µM
TGI [54]: 11.9 µM
TGI [55]: 5.88 µM
TGI [56]: 9.37 µM
TGI [57]: 3.91 µM
TGI [58]: 20.7 µM
